Data as given in paper PMC8405091, “Microwave-assisted Phospha-Michael addition reactions in the 13α-oestrone series and in vitro antiproliferative properties” (Journal of Enzyme Inhibition and Medicinal Chemistry, 2021).

Experiments:
[1] = system: non-cancerous mouse embryo fibroblast (NIH/3T3) cells; assay: MTT assay on non-cancerous fibroblasts (tumour selectivity); type: cell-based; conditions: Mus musculus, NIH3T3; for inhibition at 10 µM: NIH/3T3, 10 μM; for inhibition at 10 µM / inhibition at 30 µM: 72 h, read-out: Growth inhibition, % ± SEM; for inhibition at 30 µM: NIH/3T3, 30 μM; for IC50: NIH/3T3, 72 h, read-out: calculated IC50 value
Protocol: (§1) The antiproliferative properties of the newly synthesized compounds (9–20) and their starting materials (4 and 5) were determined on a panel of human adherent cancer cell lines. MCF-7, MDA-MB-231 and T47D were isolated from breast cancers differing in biochemical background, while A2780 cells were isolated from ovarian cancer. HeLa and SiHa are cervical cancer cell lines positive for HPV-18 and HPV-16, respectively, while C33-A cervical cancer cells are negative for HPV. Moreover, two oropharyngeal cancer cell lines were also utilized: the HPV-negative UPCI-SCC-131 and HPV-16 positive UPCI-SCC-154. The cancer selectivity of compounds was tested on the non-cancerous mouse embryo fibroblast cell line NIH/3T3. All cell lines were purchased from European Collection of Cell Cultures (ECCAC, Salisbury, UK) exception for SiHa and C33-A (American Tissue Culture Collection, Manassas, VA, USA) and HN-SCC-131 and UPCI-SCC-154 (German Collection of Microorganisms and Cell Cultures GmbH, Braunschweig, Germany). Cells were cultivated in minimal essential medium supplemented with 10% fetal bovine serum, 1% non-essential amino acids and an antibiotic–antimycotic mixture. The medium of oropharyngeal cancer cells additionally contained 2.0 mM L-glutamine. All media and supplements were obtained from Lonza Group Ltd., Basel, Switzerland. Near-confluent cancer cells were seeded onto a 96-well microplate at a density of 5,000 cells/well, except for C33-A which were seeded at 10,000/well. After overnight standing, new medium containing the tested compounds at 10 and 30 µM final concentration was added. After incubation for 72 h at 37 °C in humidified air containing 5% CO2, the living cells were assayed by the addition of 20 μL of 5 mg/ml 3-(4,5-dimethylthiazol-2-yl)-2,5-diphenyltetrazolium bromide (MTT) solution. MTT was converted by intact mitochondrial reductase and precipitated as purple crystals during a 4-h contact period. The medium was next removed and the precipitated formazan crystals were dissolved in 100 μL of DMSO during a 60-min period of shaking at 37 ^оC.
(§2) All in vitro experiments were carried out twice with five parallels. Stock solutions of the tested substances (10 mM) were prepared in DMSO. […] Cisplatin (Ebewe Pharma GmbH, Unterach, Austria) was used as positive control.

MCF-7 cells = assay: MTT antiproliferative assay, MCF-7; type: cell-based, human; conditions: Homo sapiens, MCF7; for inhibition at 10 µM: MCF-7, 10 μM; for inhibition at 10 µM / inhibition at 30 µM: 72 h, read-out: Growth inhibition, % ± SEM; for inhibition at 30 µM: MCF-7, 30 μM; for IC50: MCF-7, 72 h, read-out: calculated IC50 value
Protocol: as §1, §2

UPCI-SCC-131 cells = assay: MTT antiproliferative assay, UPCI-SCC-131; type: cell-based, human; conditions: Homo sapiens; for inhibition at 10 µM: UPCI-SCC-131, 10 μM; for inhibition at 10 µM / inhibition at 30 µM: 72 h, read-out: Growth inhibition, % ± SEM; for inhibition at 30 µM: UPCI-SCC-131, 30 μM; for IC50: UPCI-SCC-131, 72 h, read-out: calculated IC50 value
Protocol: as §1, §2

UPCI-SCC-154 cells = assay: MTT antiproliferative assay, UPCI-SCC-154; type: cell-based, human; conditions: Homo sapiens; for inhibition at 10 µM: UPCI-SCC-154, 10 μM; for inhibition at 10 µM / inhibition at 30 µM: 72 h, read-out: Growth inhibition, % ± SEM; for inhibition at 30 µM: UPCI-SCC-154, 30 μM; for IC50: UPCI-SCC-154, 72 h, read-out: calculated IC50 value
Protocol: as §1, §2

T47D cells = assay: MTT antiproliferative assay, T47D; type: cell-based, human; conditions: Homo sapiens, 72 h; for inhibition at 10 µM / inhibition at 30 µM: read-out: Growth inhibition, % ± SEM; for IC50: read-out: calculated IC50 value
Protocol: as §1, §2

MDA-MB-231 cells = assay: MTT antiproliferative assay, MDA-MB-231; type: cell-based, human; conditions: Homo sapiens; for IC50: MDA-MB-231, 72 h, read-out: calculated IC50 value; for inhibition at 10 µM: MDA-MB-231, 10 μM; for inhibition at 10 µM / inhibition at 30 µM: 72 h, read-out: Growth inhibition, % ± SEM; for inhibition at 30 µM: MDA-MB-231, 30 μM
Protocol: as §1, §2

SiHa cells = assay: MTT antiproliferative assay, SiHa; type: cell-based, human; conditions: Homo sapiens, 72 h; for inhibition at 10 µM / inhibition at 30 µM: read-out: Growth inhibition, % ± SEM; for IC50: read-out: calculated IC50 value
Protocol: as §1, §2

HeLa cells = assay: MTT antiproliferative assay, HeLa; type: cell-based, human; conditions: Homo sapiens, 72 h; for inhibition at 10 µM / inhibition at 30 µM: read-out: Growth inhibition, % ± SEM; for IC50: read-out: calculated IC50 value
Protocol: as §1, §2

A2780 cells = assay: MTT antiproliferative assay, A2780; type: cell-based, human; conditions: Homo sapiens; for IC50: A2780, 72 h, read-out: calculated IC50 value; for inhibition at 10 µM: A2780, 10 μM; for inhibition at 10 µM / inhibition at 30 µM: 72 h, read-out: Growth inhibition, % ± SEM; for inhibition at 30 µM: A2780, 30 μM
Protocol: as §1, §2

C33-A cells = assay: MTT antiproliferative assay, C33-A; type: cell-based, human; conditions: Homo sapiens, C-33-A, C33-A, 72 h; for inhibition at 10 µM / inhibition at 30 µM: read-out: Growth inhibition, % ± SEM; for IC50: read-out: calculated IC50 value
Protocol: as §1, §2

SMILES	inhibition at 10 µM [1] [%]	inhibition at 30 µM [1] [%]	IC50 [1] [µM]	inhibition at 10 µM (MCF-7 cells) [%]	inhibition at 30 µM (MCF-7 cells) [%]	IC50 (MCF-7 cells) [µM]	inhibition at 10 µM (UPCI-SCC-131 cells) [%]	inhibition at 30 µM (UPCI-SCC-131 cells) [%]	IC50 (UPCI-SCC-131 cells) [µM]	inhibition at 10 µM (UPCI-SCC-154 cells) [%]	inhibition at 30 µM (UPCI-SCC-154 cells) [%]	IC50 (UPCI-SCC-154 cells) [µM]	inhibition at 10 µM (T47D cells) [%]	inhibition at 30 µM (T47D cells) [%]	IC50 (T47D cells) [µM]	IC50 (MDA-MB-231 cells) [µM]	inhibition at 10 µM (MDA-MB-231 cells) [%]	inhibition at 30 µM (MDA-MB-231 cells) [%]	inhibition at 10 µM (SiHa cells) [%]	inhibition at 30 µM (SiHa cells) [%]	also measured
C=C1C[C@H]2[C@@H]3CCc4cc(OC)ccc4[C@H]3CC[C@@]2(C)C1=O [Compound 4, 3-methoxy-16-methylene derivative]	101.1 ± 0.67	100.9 ± 0.71	2.79	99.52 ± 0.51	99.83 ± 0.44	3.7	99.8 ± 0.36	99.88 ± 0.39	3.17	97.3 ± 1.1	97.81 ± 0.65	5.15	99.68 ± 0.74	99.92 ± 0.71	3.46	3.97	99.97 ± 0.71	94.6 ± 2.26	97.44 ± 0.54	99.28 ± 0.42	IC50 (SiHa cells): 3.31 µM; inhibition at 10 µM (HeLa cells): 85.1 ± 2.44%; inhibition at 30 µM (HeLa cells): 99.43 ± 0.28%; IC50 (HeLa cells): 4.45 µM; IC50 (A2780 cells): 6.24 µM; inhibition at 10 µM (A2780 cells): 96.9 ± 1.52%; inhibition at 30 µM (A2780 cells): 100.5 ± 0.22%; inhibition at 10 µM (C33-A cells): 99.57 ± 0.61%; inhibition at 30 µM (C33-A cells): 99.55 ± 0.39%; IC50 (C33-A cells): 3.6 µM
C=C1C[C@H]2[C@@H]3CCc4cc(OCc5ccccc5)ccc4[C@H]3CC[C@@]2(C)C1=O [Compound 5]	100.8 ± 0.16	100.3 ± 0.25	2.74	99.7 ± 0.43	100.6 ± 0.31	3.35	99.54 ± 0.33	99.94 ± 0.44	2.38	96.4 ± 0.89	100.3 ± 0.82	4.5	100.2 ± 0.28	101.3 ± 0.47	3.47	4.07	97.2 ± 1.46	98.57 ± 0.89	98.98 ± 0.26	99.97 ± 0.42	IC50 (SiHa cells): 2.3 µM; inhibition at 10 µM (HeLa cells): 75.1 ± 3.73%; inhibition at 30 µM (HeLa cells): 99.65 ± 0.25%; IC50 (HeLa cells): 6.99 µM; IC50 (A2780 cells): 6.7 µM; inhibition at 10 µM (A2780 cells): 94.8 ± 2.13%; inhibition at 30 µM (A2780 cells): 100.9 ± 0.18%; inhibition at 10 µM (C33-A cells): 93.9 ± 2.56%; inhibition at 30 µM (C33-A cells): 100 ± 0.23%; IC50 (C33-A cells): 3.75 µM
